According to patent US9719981B2, “RAC1 inhibitors for the treatment of alport glomerular disease” (Father Flanagan's Boys' Home, priority 2012, dated 2017):

Legend:
[1] = tested on: 129 autosomal Alport mice; test: Endothelin receptor blockade (Bosentan or Sitaxentan) in 129 autosomal Alport mice; assay type: in vivo, mouse; conditions: for Mesangial filopodial invasion and deposition of laminin 211 in the glomerular capillaries: Alport mouse model; for Ameliorating Alport renal disease (comparison of the two antagonists) / GBM structural abnormalities / Glomerular expression of MMPs and pro-inflammatory cytokines / Mesangial process invasion of the glomerular capillaries / Onset and progression of proteinuria: treated from 2 to 7 weeks of age
Procedure: With this example, 129 autosomal Alport mice were given either Bosentan (an endothelin A and B receptor antagonist) or Sitaxentan (an endothelin A receptor antagonist) from 2 to 7 weeks of age. Mice were analyzed longitudinally for proteinuria and BUN, glomerular RNA for gene expression of MMPs and pro-inflammatory cytokines by real time RT-PCR, and tissue was analyzed histochemistry and immunohistochemistry for pathologic changes.
To determine whether ETR antagonism prevents mesangial filopodia formation in vivo, we treated 129 Sv Alport mice with either Bosentan (ETAR and ETBR antagonist) or Sitaxentan (an ETAR antagonist) from 2 weeks to 7 weeks of age.

[2] = tested on: 129 Sv autosomal Alport mice; test: Bosentan treatment of 129 Sv autosomal Alport mice; assay type: in vivo, mouse
Procedure: It is known that matrix metalloproteinases (MMPs), transforming growth factor beta 1 (TGF-β1), and monocyte chemoattractant protein-1 (MCP-1) contribute to the progression of Alport glomerular pathology (Cosgrove et al., 2000, Am J Pathol; 157(5):1649-59; Rao et al., 2006, Am J Pathol; 169(1):32-46; Eisberg et al., 2006, PLoS Med; 3(4):e100). 129 Sv autosomal Alport mice and wild type littermates were treated with 100 mg/kg Bosentan or with […] vehicle by oral gavage from 2 to 7 weeks of age. One kidney was prepared for immunohistochemistry, and the other used for glomerular RNA isolation. […] MMP-9 expression was not affected; however this MMP has been shown not to contribute to progression of Alport glomerular disease (Andrews et al., 2000, Am J Pathol; 157(1):303-11). Kidney cryosections from these same mice were immunostained using antibodies against fibronectin, to assess interstitial fibrosis, and CD11b, to assess the degree of monocytic interstitial infiltration.

[3] = tested on: primary cultured mesangial cells; test: Boyden chamber (Transwell) cell migration assay, wild type mesangial cells; assay type: cell-based, mouse; conditions: relative to 10% FCS, p<0.05
Procedure: MES Migration (insert). Transwell cell migration assays were performed as described by Daniel et al. (Daniel et al., 2012, Lab Invest; 92(6): 812-26) with some modifications. 8 micron, 24-well plate control inserts (BD Bioscience, Bedford, Mass.) were coated overnight at 4° C. with 100 μl of 0.1% gelatin/PBS then washed 1× with PBS. MES cultures were incubated in 1% FCS overnight, then 0.05% BSA-containing media for at least 8 hours, washed 1× with PBS and carefully tryspinized to ensure a single cell suspension and limited “clumping” of cells. After serum-neutralization and subsequent centrifugation, ˜100,000 cells were resuspended in 1.5 mls of 0.05% BSA media containing activators/inhibitors. The wells of a 24-well plate were filled with 0.75 mls of 10% FCS-containing media plus activators/inhibitors (excluding 0.05% BSA control well). 0.5 ml of cell-suspension was loaded into the gelatin-coated insert and the insert placed in a well. Wells were visually inspected for bubbles beneath insert and equal distribution of cell-suspension. Cells were allowed to migrate overnight (˜18 hrs). Using a moistened cotton swab, non-migrated cells were liberated from the apical-side of the insert by gentle but firm rubbing. A second swab repeated the removal and was followed by a single wash with PBS. Inserts were fixed, stained and washed (2×) in companion 24 well plate(s) containing 0.5 mls MEOH, 0.5 mls 1% Toluidine Blue in 1% Borax and 0.5 mls distilled H2O, respectively. Inserts were air dried and counted at 100× magnification. Five fields were counted on each insert including one center and four periphery areas. Data was expressed as relative to 10% FCS control well (set equal to one).

[4] = tested on: cultured wild type mesangial cells; test: LPS-induced actin cytoskeletal rearrangement (phalloidin staining); assay type: cell-based, mouse; conditions: 10 ng/ml LPS; 10 μM Rac-1 inhibitor or 1 μM CDC42 inhibitor; blinded
Procedure: Activation of mesangial cell cultures by treatment with LPS. Sub-confluent mesangial cells were tryspinized; plated at low density on Rat tail type 1 collagen (BD Biosciences) coated cytology slides (VWR) and incubated overnight in 1% FCS-containing media. One hour after the addition of serum-free media, 1 μM CDC42 Inhibitor (KSC-23-233) and 10 μM Rac-1 Inhibitor, NSC-23766 (Tocris) were added to individual slides and allowed to incubate for an additional hour. 10 ng/ml Lipopolysaccharides (Sigma-Aldrich) was added to cells, incubated 1 hour, fixed in ice cold acetone for 5 minutes and allowed to air dry ˜2 hours. Cells were stained with a 1:100 dilution of antibodies specific for CDC42 (10155-1-AP, PROTEINTECH™), and phalloidin (Molecular Probes) imaged. Untreated, LPS alone and LPS plus inhibitors treatments were repeated on two different derivations of primary mesangial cells with qualitatively consistent results.

[5] = tested on: Alport mice on the 129 Sv background; test: Treatment of Alport mice with Rac1 inhibitor; assay type: in vivo, mouse; conditions: injected once daily from 2 weeks to 6 weeks of age; relative to saline
Procedure: FIG. 9. Treatment of Alport mice with Rac1 inhibitors partially ameliorates mesangial cell process invasion of the glomerular capillary tufts. […] Kidney cryosections were analyzed by dual immunofluorescence immunostaining using antibodies against either laminin α2 (B and E) or integrin α8 (A and D). […] represent a merging of results from staining with laminin α2 and integrin α8. The degree of mesangial process invasion of the glomerular capillary tufts was ameliorated in the Rac1 inhibitor-treated mice relative to mice injected with saline.
To examine the effect of Rac1 inhibitors on Alport glomerular disease progression, either wild type or Alport mice were treated with inhibitors by IP injection from 2 weeks to 6 weeks of age. Glomeruli were examined for mesangial process invasion of the capillary tufts by dual immunofluorescence microscopy using antibodies specific for either integrin α8 or the GBM marker laminin α5. […] Combined, the data in FIG. 7, FIG. 8, and FIG. 9 confirm that mesangial process invasion of the glomerular capillaries is a Rac1-dependent process, and that Rac1 activation is attenuated by integrin α1 deletion both in vitro and in vivo.
Immunofluorescence microscopy. Fresh frozen kidneys were sectioned at 8 μm and acetone fixed. […]

[6] = tested on: integrin α1-null mesangial cells; test: Boyden chamber (Transwell) cell migration assay, integrin α1-null mesangial cells; assay type: cell-based, mouse; conditions: relative to 10% FCS
Procedure: MES Migration (insert). Transwell cell migration assays were performed as described by Daniel et al. (Daniel et al., 2012, Lab Invest; 92(6): 812-26) with some modifications. 8 micron, 24-well plate control inserts (BD Bioscience, Bedford, Mass.) were coated overnight at 4° C. with 100 μl of 0.1% gelatin/PBS then washed 1× with PBS. MES cultures were incubated in 1% FCS overnight, then 0.05% BSA-containing media for at least 8 hours, washed 1× with PBS and carefully tryspinized to ensure a single cell suspension and limited “clumping” of cells. After serum-neutralization and subsequent centrifugation, ˜100,000 cells were resuspended in 1.5 mls of 0.05% BSA media containing activators/inhibitors. The wells of a 24-well plate were filled with 0.75 mls of 10% FCS-containing media plus activators/inhibitors (excluding 0.05% BSA control well). 0.5 ml of cell-suspension was loaded into the gelatin-coated insert and the insert placed in a well. Wells were visually inspected for bubbles beneath insert and equal distribution of cell-suspension. Cells were allowed to migrate overnight (˜18 hrs). […] Inserts were air dried and counted at 100× magnification. Five fields were counted on each insert including one center and four periphery areas. Data was expressed as relative to 10% FCS control well (set equal to one).

CDC42 = test: ELISA for GTP-CDC42 in endothelin-1 treated mesangial cells; assay type: cell-based, mouse
Procedure: (§1) FIG. 30. Treatment of mesangial cells with endothelin-1 activates CDC42 and induces the formation of drebrin-positive actin microspikes; microspikes and CDC42 activation are inhibited by pre-treatment of cells with Sitaxentan. A) Cultured mesangial cells were serum starved, pretreated for 1 hour with or without Sitaxentan, treated for 30 minutes with endothelin-1, fixed with acetone, and dual stained with anti-drebrin antibodies (red) and phalloidin (green). Drebrin-positive microspikes (filopodia, denoted by arrowheads) are highly abundant on the endothelin-treated cells, but not detected when the cells are pre-treated with Sitaxentan. B) Cells were treated as in A, then lysates prepared and assayed by ELISA for GTP-CDC42.
(§2) To address this, serum-starved cultured mesangial cells were pre-treated (or not) with the ETAR antagonist, Sitaxentan, and then stimulated the cells with endothelin-1. Cells were then dual labeled with anti-drebrin antibodies (drebrin stabilizes actin filaments in filopodia) and phalloidin. […] Lysates from cultured mesangial cells were further analysed using these same conditions for the activation of CDC42 using a commercial ELISA assay for GTP-CDC42.

[7] = tested on: 129 Sv autosomal Alport mice; test: Sitaxentan treatment of 129 Sv autosomal Alport mice; assay type: in vivo, mouse
Procedure: FIG. 32. […] At least 6 glomeruli from at least 3 independent animals per group were analyzed by quantifying red fluorescence in circumferential capillary loops (defined by laminin α5 immunostaining in green) using NIH image J software. Mesangial angles were excluded. A) An example of how the capillaries were partitioned for these measures. B) Immunogold labeling for integrin α8 in a filopodial cross-section on the sub-endothelial aspect of an Alport capillary loop (arrow). Note the absence of immunogold labeling in the podocyte pedicles (asterisks) and the fenestrated endothelium (arrowheads). C) Quantitative results for red fluorescence in the capillary loops.
FIG. 33. […] Urine was collected at the indicated time points and analyzed for albumin using an ELISA kit. Albumin measures were normalized to urinary creatinine. Note that measurable albumin in the Sitaxentan-treated mice was not detected until 6 weeks of age indicating a delayed onset of glomerular disease.
129 Sv autosomal Alport mice were given Sitaxentan once daily by oral gavage from 2 weeks to 7 weeks of age. Kidney cryosections were immunostained using antibodies for laminin α2 and integrin α8 to determine the effect of drug treatment on laminin 211 deposition in the GBM or laminin α5 and integrin α8 to determine the degree of mesangial filopodial invasion in the glomerular capillaries. In addition, transmission electron microscopy was used to determine whether the ETAR antagonist ameliorates GBM damage.

cultured mesangial cells = test: Endothelin-1 induced drebrin-positive actin microspikes in mesangial cells; assay type: cell-based, mouse
Procedure: as §1, §2

[8] = 100 mg/kg oral gavage from 2 to 7 weeks of age, vs vehicle
[9] = pretreated 1 hour, endothelin-1 for 30 minutes
[10] = serum-starved cells, 30 minutes

## COc1ccccc1Oc1c(NS(=O)(=O)c2ccc(C(C)(C)C)cc2)nc(-c2ncccn2)nc1OCCO [Bosentan, 4-tert-butyl-N-[6-(2-hydroxy-ethoxy)-5-(2-methoxy-phenoxy)[2,{acuteover (2)}]-bipyrimidin-4-yl]-benzenesulfonamide monohydrate]
[1]
  Mesangial filopodial invasion and deposition of laminin 211 in the glomerular capillaries: highly effective
  Ameliorating Alport renal disease (comparison of the two antagonists): equally effective
  GBM structural abnormalities: ameliorating
  Glomerular expression of MMPs and pro-inflammatory cytokines: significantly reducing
  Mesangial process invasion of the glomerular capillaries: markedly reduced
  Onset and progression of proteinuria: delaying the onset and progression
[2]; [8]
  Glomerular MMP-9 expression: not affected
  Glomerular mRNA expression of IL-6: significant reduction
  Glomerular mRNA expression of MMP-10: significant reduction
  Glomerular mRNA expression of MMP-12: significant reduction
  Glomerular mRNA expression of TGF-β1: significant reduction
[2]; 7 weeks of age, vs vehicle
  Interstitial fibrosis (fibronectin immunostaining): near complete blockade
  Mesangial process invasion of glomerular capillaries (integrin α8 / laminin α5 immunostaining): largely localized to the mesangial matrix, with occasional interposition into the capillary loops observed
  Monocytic interstitial infiltration (CD11b immunostaining): near complete blockade
[2]; Bosentan-treated Alport mice vs vehicle
  Glomerular expression of MCP-1: significantly reduced

## CCn1c(-c2nonc2N)nc2c(C#CC(C)(C)O)ncc(OC[C@H]3CCCNC3)c21 [GSK 690693]
[3]
  Migration of wild type mesangial cells: not affected

## CCN(CC)CCCC(C)Nc1nc(C)cc(Nc2ccc3nc(C)cc(N)c3c2)n1 (centres unmarked) [NSC 23766]
[3]
  Migration of wild type mesangial cells: significantly reduced
[4]
  LPS-induced morphological change (filopodia / actin spikes) in presence of inhibitor: could not be distinguished in blinded experiments form untreated wild type mesangial cells
[5]
  Degree of mesangial process invasion of the glomerular capillary tufts: ameliorated
[6]
  Integrin α1-null mesangial cell migration: unaffected

## Cc1cc2c(cc1CC(=O)c1sccc1S(=O)(=O)Nc1onc(C)c1Cl)OCO2 [Sitaxentan, N-(4-chloro-3-methyl-1,2-oxazol-5-yl)-2-[2-(6-methyl-2H-1,3-benzodioxol-5-yl)acetyl]thiophene-3-sulfonamide]
CDC42; [9]
  Endothelin-1 induced CDC42 activation (GTP-CDC42), with antagonist pretreatment: prevents
[7]; 7 weeks of age
  GBM architecture (transmission electron microscopy): normalization
  Interstitial fibrosis (fibronectin immunostaining): profoundly ameliorated
  Monocyte recruitment to the renal interstitium (CD11b immunostaining): profoundly ameliorated
[7]; at least 6 glomeruli from at least three mice per group
  Capillary integrin α8 immunostaining (quantified red fluorescence): normalization
[7]; normally detected by 3 weeks of age
  Age at which proteinuria was first detected: 6 weeks of age
[7]; once daily oral gavage from 2 weeks to 7 weeks of age, vs vehicle
  Mesangial filopodial invasion of glomerular capillaries: near complete absence
[7]; urinary albumin normalized to creatinine
  Proteinuria after the onset: significantly reduced
[7]; with the exception of TGF-β1
  Glomerular expression of MMP-10, -12 and MCP-1 compared with the reduction seen with Bosentan: quantitatively similar results
[1]
  Mesangial filopodial invasion and deposition of laminin 211 in the glomerular capillaries: highly effective
  Ameliorating Alport renal disease (comparison of the two antagonists): equally effective
  GBM structural abnormalities: ameliorating
  Glomerular expression of MMPs and pro-inflammatory cytokines: significantly reducing
  Mesangial process invasion of the glomerular capillaries: markedly reduced
  Onset and progression of proteinuria: delaying the onset and progression
Cultured mesangial cells; [9]
  Endothelin-1 induced formation of drebrin-positive microspikes, with antagonist pretreatment: blocks

## ML141
[3]
  Migration of wild type mesangial cells: significantly reduced
[4]
  LPS-induced morphological change (filopodia / actin spikes) in presence of inhibitor: could not be distinguished in blinded experiments form untreated wild type mesangial cells
[6]
  Integrin α1-null mesangial cell migration: unaffected

## endothelin-1: stimulus activating endothelin receptors on mesangial cells
CDC42; [10]
  CDC42 activation (GTP-CDC42) on stimulation: significantly activates
Cultured mesangial cells; [10]
  Formation of drebrin-positive filopodial microspikes on stimulation: induces
